The source of these data is patent US20240261294A1, “METHOD FOR TREATING IDH INHIBITOR-RESISTANT SUBJECTS” (Eli Lilly and Company, priority 2021, published 2024).

In one experiment the target is T1, IDH2 R140Q_I319M cis (Homo sapiens, UniProt P48735, I319M/R140Q).
T1 construct: expressed in transfected cells; host or cells: U-87 MG
T1 sequence (P48735 40-452 R140Q/I319M): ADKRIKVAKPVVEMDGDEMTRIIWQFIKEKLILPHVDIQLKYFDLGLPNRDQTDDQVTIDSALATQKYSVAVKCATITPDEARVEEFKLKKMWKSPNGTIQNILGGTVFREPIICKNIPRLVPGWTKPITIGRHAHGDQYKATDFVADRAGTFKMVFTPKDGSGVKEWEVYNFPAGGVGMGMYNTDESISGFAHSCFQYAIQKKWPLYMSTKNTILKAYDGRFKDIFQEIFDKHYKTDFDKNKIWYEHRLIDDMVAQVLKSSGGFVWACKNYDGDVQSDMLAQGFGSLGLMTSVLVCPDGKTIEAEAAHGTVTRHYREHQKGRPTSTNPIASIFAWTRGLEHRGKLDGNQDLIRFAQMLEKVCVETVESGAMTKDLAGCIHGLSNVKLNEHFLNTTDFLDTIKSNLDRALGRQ
The experiment can be described thus: Inhibition of 2-HG production in IDH2 mutant U-87 MG cells. It is filed as cell-based. As for the experimental part:
(§1) Compounds and Formulation. Compound A may be synthesized as described in WO/18/111707. Compound A is prepared as a 20 mM stock in 100% DMSO (dimethyl sulfoxide) (Sigma, D2438) and diluted serially in 100% DMSO to achieve the desired concentrations. DMSO preparations are further diluted with cell culture media prior to addition in the assay.
(§2) Cell lines. U-87 MG cells (ATCC, HTB-14) are cultured and assayed in MEM (Gibco, 11095) with 2 mM GlutaMAX (Gibco, 35050), 1 mM Pyruvate (Gibco, 11360), 0.1 mM NEAA ((Non-essential amino acid) Gibco, 11140) and 10% dialyzed FBS (Fetal bovine serum) (Gibco, 26400).
(§3) Cell-based inhibition assays. Cell-based assays are performed by measuring 2-HG in U-87 MG cells in which IDH2 mutations are expressed.
(§4) DNA constructs encoding IDH2 mutations are introduced into U-87 MG cells using transfection (Promega FuGENE HD, E2311) or lentiviral transduction, and the IDH2-mutant expressing cell lines are selected using blasticidin (5 μg/ml) or puromycin (1 μg/ml). Second site mutations (Q316E, I319M, P167R, and G260A) are evaluated in cis (same monomer as driver mutation within dimer) or in trans (opposite monomer from driver mutation in dimer). For compound treatments, 12,500 or 50,000 cells per well in culture medium (150 μl or 100 μl, respectively) are plated in 96 well cell culture plates (Falcon, 353377) 2 hrs prior to treatment. Cells are treated with serial dilutions of compound A in standard growth media. Plates are incubated in a mammalian cell culture incubator (humidified, 37° C., 5% CO2) for 16 or 72 hrs. Following the incubation period, the media is aspirated and cell extracts are prepared by addition of ice-cold 80% methanol/20% water (100 μL) containing liquid chromatography-mass spectrometry (LC-MS) internal standards (1 μM ^13C4 α-KG and ^13C5 2-HG) per well for ion pairing LC-MS method. 96-well sample plates are then sealed, shaken at 450 rpm for 10 min, and then placed at −20° C. and stored until LC-MS analysis.
(§5) LC-MS metabolite analysis of conditioned media and cell lysates. The effect of inhibitors on the concentrations of 2-HG are determined by LC-MS analysis of cell lysates using an ion-pairing method as described below.
(§6) Calibration curves are prepared by spiking 2-HG and α-KG into 80% methanol/20% water containing LC-MS internal standards (1 μM ^13C4 α-KG and 1 μM ^13C5 2-HG). The quantitation of 2-HG and α-KG is accomplished using an AB Sciex 6500 mass spectrometer with an Electrospray Ionization (ESI) probe and interfaced with an Ultra Performance Liquid Chromatography (UHPLC) system in the negative multiple-reaction monitoring (MRM) mode. The UHPLC system consists of an Agilent 1290 binary pump, thermostatted column compartment (TCC), and sampler. The injection volume is 1 μL for cell culture extracts. The extracts are chromatographically resolved using a Hypercarb column, 2.1×20 mm, […] Javelin HTS (Thermo Scientific, PN: 35005-022135). Mobile phase A is water/10 mM tributylamine/15 mM acetic acid. Mobile phase B is acetonitrile/20 mM tributylamine/30 mM acetic acid. The solvent flow rate is 1.0 mL/min. The isocratic condition is kept at 26% mobile phase B. The valve, sample loop, and needle are washed with 50% acetonitrile: 50% methanol for 20 seconds. The column temperature is kept at 55° C. Calibration curves are calculated by least-square linear regression with 1/x weighting. 2-HG and α-KG are quantified using standard curve and ratio of the peak area of analytes to internal standard. Data analysis is performed using MultiQuant 3.0 (AB Sciex). The raw data are exported to Microsoft Excel spreadsheets.
(§7) Determination of IC50 Curves. IC50 curves for each compound are obtained using four parameter data fitting analysis in GraphPad/Prism software.

A further experiment has as its target T2, IDH2 R172W_P167R cis (Homo sapiens, UniProt P48735, P167R/R172W).
T2 construct: expressed in transfected cells; host or cells: U-87 MG
T2 sequence (P48735 40-452 P167R/R172W): T1 sequence (P48735 40-452 R140Q/I319M) with Q101R, P128R, R133W, M280I
The description is as above. Particulars: read-out: Relative IC50 (nM) Mean, inhibition of 2-HG production. In kind it is cell-based. As for the experimental part: as §1, §2, §3, §4, §5, §6, §7

Each structure is given as a SMILES string. Numbering of substitutions follows the chain as printed. Read-outs that look alike come from different tables or passages of the source.

Regarding `C=CC(=O)N1CCN([C@@H](CC2CC2)c2ccc([C@H](C)Nc3ncc4c(n3)N(CC)C(=O)OC4)cc2)CC1` [Compound A, 7-[[(1S)-1-[4-[(1S)-2-cyclopropyl-1-(4-prop-2-enoylpiperazin-1-yl)ethyl]phenyl]ethyl]amino]-1-ethyl-4H-pyrimido[4,5-d][1,3]oxazin-2-one], the IC50 (in general, the concentration that gives 50% inhibition) is 29 nM at IDH2 R140Q_I319M cis (16 hours incubation, 50K cells/well, 100 μl media/well, read-out: Relative IC50 (nM) Mean, inhibition of 2-HG production); 30.4 nM on IDH2 R140Q_I319M cis (72 hours incubation, 12.5K cells/well, 150 μl media/well, read-out: IC50, inhibition of 2-HG production); 1280 nM at IDH2 R172W_P167R cis (16 hours incubation, 50K cells/well, 100 μl media/well); 535 nM on IDH2 R172W_P167R cis (72 hours incubation, 12.5K cells/well).
